Measurements published in the supplement of paper PMC10307832.

Legend:
Assay in all cases: relative viability (nuclei count vs DMSO), 5 days (fraction); higher = more cells survive
[1] = test system: SK-LU-1
Method in brief: (§1)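 The day after seeding in 1536-well plates, lung cancer cell lines were treated by pin tool with a single drug, or with a fixed anchor-drug dose together with five library-drug doses (not always all listed) in √10 steps. After 5 days, a combined fix-and-stain solution (final 0.05% Triton X-100, 1% formaldehyde, 1 ug/ml Hoechst) was added. Nuclei counted on 4× images gave relative viability as treated counts over vehicle counts, reported as the median of duplicate plates.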

[2] = test system: COR-L23
Method in brief: as §1

[3] = test system: ABC-1
Method in brief: as §1

[4] = test system: HOP-62
Method in brief: as §1

[5] = test system: NCI-H1734
Method in brief: as §1

[6] = test system: NCI-H1437
Method in brief: as §1

[7] = test system: NCI-H3122
Method in brief: as §1

[8] = test system: UMC-11
Method in brief: as §1

[9] = test system: NCI-H727
Method in brief: as §1

[10] = test system: NCI-H1755
Method in brief: as §1

[11] = test system: NCI-H2347
Method in brief: as §1

[12] = test system: EMC-BAC-2
Method in brief: as §1

[13] = test system: RERF-LC-KJ
Method in brief: as §1

[14] = test system: LK-2
Method in brief: as §1

[15] = test system: HCC-366
Method in brief: as §1

[16] = test system: PC-3 [JPC-3]
Method in brief: as §1

[17] = test system: NCI-H441
Method in brief: as §1

[18] = test system: CAL-12T
Method in brief: as §1

[19] = test system: NCI-H1651
Method in brief: as §1

[20] = test system: HARA
Method in brief: as §1

[21] = test system: NCI-H1650
Method in brief: as §1

## CN1CCN(CCOc2cc(OC3CCOCC3)c3c(Nc4c(Cl)ccc5c4OCO5)ncnc3c2)CC1 [Saracatinib] + CC(=O)c1c(C)c2cnc(Nc3ccc(N4CCNCC4)cn3)nc2n(C2CCCC2)c1=O [Palbociclib] (partner 0.5 µM)
[1]; first compound 0.02 µM
  relative viability: 0.517
[1]; first compound 0.2 µM
  relative viability: 0.297
[1]; first compound 0.6325 µM
  relative viability: 0.328
[1]; first compound 2 µM
  relative viability: 0.254
[2]; first compound 0.02 µM
  relative viability: 0.278
[2]; first compound 0.2 µM
  relative viability: 0.301
[2]; first compound 0.6325 µM
  relative viability: 0.243
[2]; first compound 2 µM
  relative viability: 0.287
[3]; first compound 0.02 µM
  relative viability: 0.624
[3]; first compound 0.2 µM
  relative viability: 0.646
[3]; first compound 0.6325 µM
  relative viability: 0.891
[3]; first compound 2 µM
  relative viability: 0.622
[4]; first compound 0.02 µM
  relative viability: 0.452
[4]; first compound 0.2 µM
  relative viability: 0.396
[4]; first compound 0.6325 µM
  relative viability: 0.459
[4]; first compound 2 µM
  relative viability: 0.477
[5]; first compound 0.02 µM
  relative viability: 0.362
[5]; first compound 0.6325 µM
  relative viability: 0.372
[5]; first compound 2 µM
  relative viability: 0.329
[6]; first compound 0.02 µM
  relative viability: 0.355
[6]; first compound 0.2 µM
  relative viability: 0.337
[6]; first compound 0.6325 µM
  relative viability: 0.455
[6]; first compound 2 µM
  relative viability: 0.308
[7]; first compound 0.02 µM
  relative viability: 0.194
[7]; first compound 0.2 µM
  relative viability: 0.174
[7]; first compound 0.6325 µM
  relative viability: 0.199
[7]; first compound 2 µM
  relative viability: 0.185
[8]; first compound 0.02 µM
  relative viability: 0.339
[8]; first compound 0.2 µM
  relative viability: 0.374
[8]; first compound 0.6325 µM
  relative viability: 0.38
[8]; first compound 2 µM
  relative viability: 0.309
[9]; first compound 0.02 µM
  relative viability: 0.604
[9]; first compound 0.2 µM
  relative viability: 0.692
[9]; first compound 0.6325 µM
  relative viability: 0.674
[9]; first compound 2 µM
  relative viability: 0.551
[10]; first compound 0.02 µM
  relative viability: 0.448
[10]; first compound 0.2 µM
  relative viability: 0.395
[10]; first compound 0.6325 µM
  relative viability: 0.45
[10]; first compound 2 µM
  relative viability: 0.435
[11]; first compound 0.02 µM
  relative viability: 0.468
[11]; first compound 0.2 µM
  relative viability: 0.397
[11]; first compound 0.6325 µM
  relative viability: 0.428
[11]; first compound 2 µM
  relative viability: 0.432
[12]; first compound 0.02 µM
  relative viability: 0.507
[12]; first compound 0.2 µM
  relative viability: 0.483
[12]; first compound 0.6325 µM
  relative viability: 0.517
[12]; first compound 2 µM
  relative viability: 0.511
[13]; first compound 0.02 µM
  relative viability: 1.05
[13]; first compound 0.2 µM
  relative viability: 1.05
[13]; first compound 0.6325 µM
  relative viability: 1.01
[13]; first compound 2 µM
  relative viability: 1.06
[14]; first compound 0.02 µM
  relative viability: 0.496
[14]; first compound 0.2 µM
  relative viability: 0.405
[14]; first compound 0.6325 µM
  relative viability: 0.528
[14]; first compound 2 µM
  relative viability: 0.313
[15]; first compound 0.02 µM
  relative viability: 0.382
[15]; first compound 0.2 µM
  relative viability: 0.176
[15]; first compound 0.6325 µM
  relative viability: 0.272
[15]; first compound 2 µM
  relative viability: 0.164
[16]; first compound 0.02 µM
  relative viability: 0.568
[16]; first compound 0.2 µM
  relative viability: 0.507
[16]; first compound 0.6325 µM
  relative viability: 0.532
[16]; first compound 2 µM
  relative viability: 0.561
[17]; first compound 0.02 µM
  relative viability: 0.243
[17]; first compound 0.2 µM
  relative viability: 0.196
[17]; first compound 0.6325 µM
  relative viability: 0.199
[17]; first compound 2 µM
  relative viability: 0.182
[18]; first compound 0.02 µM
  relative viability: 0.542
[18]; first compound 0.2 µM
  relative viability: 0.409
[18]; first compound 0.6325 µM
  relative viability: 0.527
[18]; first compound 2 µM
  relative viability: 0.152
[19]; first compound 0.02 µM
  relative viability: 0.587
[19]; first compound 0.2 µM
  relative viability: 0.478
[19]; first compound 0.6325 µM
  relative viability: 0.642
[19]; first compound 2 µM
  relative viability: 0.567
[20]; first compound 0.02 µM
  relative viability: 0.234
[20]; first compound 0.2 µM
  relative viability: 0.208
[20]; first compound 0.6325 µM
  relative viability: 0.269
[20]; first compound 2 µM
  relative viability: 0.161
[21]; first compound 0.02 µM
  relative viability: 0.334
[21]; first compound 0.2 µM
  relative viability: 0.28
[21]; first compound 0.6325 µM
  relative viability: 0.267
[21]; first compound 2 µM
  relative viability: 0.159
